Source: ChEMBL document CHEMBL3414511, “Synthesis of a novel class of substituted benzothiophene or benzofuran derivatives as BMP-2 up-regulators and evaluation of the BMP-2-up-regulating effects in vitro and the effects on glucocorticoid-induced osteoporosis in rats” (Eur J Med Chem, 2015)
Calls of active or inactive are those of the source. No cut-off for these calls is given here.

Tests used:
[1] = Upregulation of BMP-2 expression in mouse MC3T3-E1 cells at 4 uM after 24 hrs by luciferase reporter gene assay relative to control; assay type: functional, cell-based
Rattus norvegicus [2] = assay: Antiosteoporotic activity in glucocorticoid-induced Wistar rat osteoporosis model assessed as trabecula formation surface at 30 mg/kg/day, po administered six times a week for 3 months by fluorescence assay (reference value: 7.82 +/- 2.46%); assay type: functional
Rattus norvegicus [3] = assay: Toxicity in glucocorticoid-induced Wistar rat osteoporosis model assessed as alanine transaminase level at 30 mg/kg/day, po administered six times a week for 3 months (reference value: 43.73 +/- 36.21 U/L); assay type: organism-based; set-up: route oral; settings: in vivo
Rattus norvegicus [4] = assay: Toxicity in glucocorticoid-induced Wistar rat osteoporosis model assessed as effect on mean corpuscular hemoglobin concentration at 30 mg/kg/day, po administered six times a week for 3 months; assay type: organism-based; set-up: route oral; settings: in vivo
Rattus norvegicus [5] = assay: Toxicity in glucocorticoid-induced Wistar rat osteoporosis model assessed as effect on blood urea nitrogen level at 30 mg/kg/day, po administered six times a week for 3 months; assay type: organism-based; set-up: route oral; settings: in vivo
Mus musculus [6] = assay: Acute toxicity in Kunming mouse assessed as behavioral changes at 500 mg/kg, po administered for 3 days measured during compound dosing and following 14 days; assay type: organism-based; set-up: dose 500 mg/kg, route oral; settings: in vivo, 336 h
Rattus norvegicus [7] = assay: Toxicity in glucocorticoid-induced Wistar rat osteoporosis model assessed as effect on total bilirubin level at 30 mg/kg/day, po administered six times a week for 3 months; assay type: organism-based; set-up: route oral; settings: in vivo
Rattus norvegicus [8] = assay: Toxicity in glucocorticoid-induced Wistar rat osteoporosis model assessed as effect on red blood cell specific volume at 30 mg/kg/day, po administered six times a week for 3 months; assay type: organism-based; set-up: route oral; settings: in vivo
Mus musculus [9] = assay: Acute toxicity in Kunming mouse assessed as shiny fur at 500 mg/kg, po administered for 3 days measured during compound dosing and following 14 days; assay type: organism-based; set-up: dose 500 mg/kg, route oral; settings: in vivo, 336 h
Rattus norvegicus [10] = assay: Toxicity in glucocorticoid-induced Wistar rat osteoporosis model assessed as effect on albumin level at 30 mg/kg/day, po administered six times a week for 3 months; assay type: organism-based; set-up: route oral; settings: in vivo
Rattus norvegicus [11] = assay: Antiosteoporotic activity in glucocorticoid-induced Wistar rat osteoporosis model assessed as trabecular bone volume at 30 mg/kg/day, po administered six times a week for 3 months by fluorescence assay (reference value: 33.09 +/- 5.15%); assay type: functional, Trabecula
Rattus norvegicus [12] = assay: Toxicity in glucocorticoid-induced Wistar rat osteoporosis model assessed as effect on platelets at 30 mg/kg/day, po administered six times a week for 3 months; assay type: organism-based; set-up: route oral; settings: in vivo
Rattus norvegicus [13] = assay: Toxicity in glucocorticoid-induced Wistar rat osteoporosis model assessed as aspartate transaminase level at 30 mg/kg/day, po administered six times a week for 3 months (reference value: 177.55 +/- 116.98 U/L); assay type: organism-based; set-up: route oral; settings: in vivo
Rattus norvegicus [14] = assay: Antiosteoporotic activity in glucocorticoid-induced Wistar rat osteoporosis model assessed as trabecula resorption surface at 30 mg/kg/day, po administered six times a week for 3 months by fluorescence assay (reference value: 7.22 +/- 2.04%); assay type: functional
Rattus norvegicus [15] = assay: Toxicity in glucocorticoid-induced Wistar rat osteoporosis model assessed as effect on glucose level at 30 mg/kg/day, po administered six times a week for 3 months; assay type: organism-based; set-up: route oral; settings: in vivo
Rattus norvegicus [16] = assay: Toxicity in glucocorticoid-induced Wistar rat osteoporosis model assessed as lymph level at 30 mg/kg/day, po administered six times a week for 3 months (reference value: 50.35 +/- 12.96%); assay type: organism-based; set-up: route oral; settings: in vivo
Rattus norvegicus [17] = assay: Antiosteoporotic activity in glucocorticoid-induced Wistar rat osteoporosis model assessed as increase in trabecula thickness at 30 mg/kg/day, po administered six times a week for 3 months by toluidine blue staining-based light microscopic analysis relative to dexamethasone; assay type: functional, organism-based
Rattus norvegicus [18] = assay: Toxicity in glucocorticoid-induced Wistar rat osteoporosis model assessed as effect on red blood cells at 30 mg/kg/day, po administered six times a week for 3 months; assay type: organism-based; set-up: route oral; settings: in vivo
Rattus norvegicus [19] = assay: Toxicity in glucocorticoid-induced Wistar rat osteoporosis model assessed as effect on creatinine level at 30 mg/kg/day, po administered six times a week for 3 months; assay type: organism-based; set-up: route oral; settings: in vivo
Rattus norvegicus [20] = assay: Toxicity in glucocorticoid-induced Wistar rat osteoporosis model assessed as neutrophilic granulocytes level at 30 mg/kg/day, po administered six times a week for 3 months (reference value: 31.95 +/- 8.33%); assay type: organism-based; set-up: route oral; settings: in vivo
Rattus norvegicus [21] = assay: Antiosteoporotic activity in glucocorticoid-induced Wistar rat osteoporosis model assessed as mineral apposition rate at 30 mg/kg/day, po administered six times a week for 3 months by fluorescence assay (reference value: 1.06 +/- 0.27 micrometer/day); assay type: functional
Rattus norvegicus [22] = assay: Antiosteoporotic activity in glucocorticoid-induced Wistar rat osteoporosis model assessed as increase in trabecula number at 30 mg/kg/day, po administered six times a week for 3 months by toluidine blue staining-based light microscopic analysis relative to dexamethasone; assay type: functional, organism-based
Rattus norvegicus [23] = assay: Toxicity in glucocorticoid-induced Wistar rat osteoporosis model assessed as triglycerides level at 30 mg/kg/day, po administered six times a week for 3 months (reference value: 1.13 +/- 0.69 mmol/L); assay type: organism-based; set-up: route oral; settings: in vivo
Rattus norvegicus [24] = assay: Toxicity in glucocorticoid-induced Wistar rat osteoporosis model assessed as effect on hemoglobin at 30 mg/kg/day, po administered six times a week for 3 months; assay type: organism-based; set-up: route oral; settings: in vivo
Rattus norvegicus [25] = assay: Toxicity in glucocorticoid-induced Wistar rat osteoporosis model assessed as effect on mean corpuscular volume at 30 mg/kg/day, po administered six times a week for 3 months; assay type: organism-based; set-up: route oral; settings: in vivo
Rattus norvegicus [26] = assay: Toxicity in glucocorticoid-induced Wistar rat osteoporosis model assessed as effect on red blood cell distribution width at 30 mg/kg/day, po administered six times a week for 3 months; assay type: organism-based; set-up: route oral; settings: in vivo
Rattus norvegicus [27] = assay: Toxicity in glucocorticoid-induced Wistar rat osteoporosis model assessed as effect on total protein level at 30 mg/kg/day, po administered six times a week for 3 months; assay type: organism-based; set-up: route oral; settings: in vivo
Rattus norvegicus [28] = assay: Antiosteoporotic activity in glucocorticoid-induced Wistar rat osteoporosis model assessed as increase in trabecula area at 30 mg/kg/day, po administered six times a week for 3 months by toluidine blue staining-based light microscopic analysis relative to dexamethasone; assay type: functional, organism-based
[29] = Acute toxicity in po dosed Kunming mouse administered for 3 days measured during compound dosing and following 14 days; assay type: organism-based; settings: in vivo
Rattus norvegicus [30] = assay: Toxicity in glucocorticoid-induced Wistar rat osteoporosis model assessed as white blood cells at 30 mg/kg/day, po administered six times a week for 3 months (reference value: 6.28 +/- 2.78 x 10^9/L); assay type: organism-based; set-up: route oral; settings: in vivo
Rattus norvegicus [31] = assay: Antiosteoporotic activity in glucocorticoid-induced Wistar rat osteoporosis model assessed as increase in trabecula connectivity at 30 mg/kg/day, po administered six times a week for 3 months by toluidine blue staining-based light microscopic analysis relative to dexamethasone; assay type: functional, organism-based
Rattus norvegicus [32] = assay: Antiosteoporotic activity in glucocorticoid-induced Wistar rat osteoporosis model assessed as densed trabecula at 30 mg/kg/day, po administered six times a week for 3 months by toluidine blue staining-based light microscopic analysis relative to dexamethasone; assay type: functional, organism-based

COc1ccc2oc(C(=O)CS(C)(=O)=O)cc2c1
Activity [1]: 12.9%

CCOC(=O)c1cc2ccc(N(CC)CC)cc2o1
Activity [1]: 44.6%

CCOC(=O)c1cc2cc(OC)ccc2o1
Activity [1]: 64.1%

CCOC(=O)c1ccc2cc(C(=O)/C=C/c3ccc(OC)c(OC)c3OC)sc2c1
Activity [1]: -13%

COc1ccc2cc(C(=O)C[S+](C)[O-])oc2c1 (configuration not stated)
Activity [1]: 7.7%

C[S+]([O-])CC(O)c1cc2ccccc2s1 (configuration not stated)
Activity [1]: -3.6%

CCOC(=O)c1cc2ccc(OC)cc2o1
Activity (Rattus norvegicus [2]): 7.13% | Activity (Rattus norvegicus [3]): 27.67 U/L | Activity (Rattus norvegicus [4]): Non-toxic | Activity (Rattus norvegicus [5]): Non-toxic | Activity (Mus musculus [6]): Non-toxic | Activity (Rattus norvegicus [7]): Non-toxic | Activity (Rattus norvegicus [8]): Non-toxic | Activity (Mus musculus [9]): Non-toxic | Activity (Rattus norvegicus [10]): Non-toxic | Activity (Rattus norvegicus [11]): 30.8% | Activity (Rattus norvegicus [12]): Non-toxic | Activity (Rattus norvegicus [13]): 110.08 U/L | Activity (Rattus norvegicus [14]): 8.23% | Activity (Rattus norvegicus [15]): Non-toxic | Activity (Rattus norvegicus [16]): 46.18% | Activity (Rattus norvegicus [17]): Active | Activity (Rattus norvegicus [18]): Non-toxic | Activity (Rattus norvegicus [19]): Non-toxic | Activity (Rattus norvegicus [20]): 38.96% | Activity (Rattus norvegicus [21]): 1.29 micrometer/day | Activity (Rattus norvegicus [22]): Active | Activity (Rattus norvegicus [23]): 0.38 mmol/L | Activity (Rattus norvegicus [24]): Non-toxic | Activity (Rattus norvegicus [25]): Non-toxic | Activity (Rattus norvegicus [26]): Non-toxic | Activity (Rattus norvegicus [27]): Non-toxic | Activity [1]: 89.4% | Activity (Rattus norvegicus [28]): Active | LD50 at 336 h [29]: > 500 mg/kg | Activity (Rattus norvegicus [30]): 2.83 ×10⁹ /L | Activity (Rattus norvegicus [31]): Active

C[S+]([O-])CC(O)c1cc2cc3c(cc2s1)OCO3 (configuration not stated)
Activity [1]: -9.3%

CCOC(=O)c1ccc2cc(C(=O)/C=C/c3ccccc3)sc2c1
Activity (Rattus norvegicus [2]): 6.98% | Activity (Rattus norvegicus [3]): 27 U/L | Activity (Rattus norvegicus [4]): Non-toxic | Activity (Rattus norvegicus [5]): Non-toxic | Activity (Mus musculus [6]): Non-toxic | Activity (Rattus norvegicus [7]): Non-toxic | Activity (Rattus norvegicus [8]): Non-toxic | Activity (Mus musculus [9]): Non-toxic | Activity (Rattus norvegicus [10]): Non-toxic | Activity (Rattus norvegicus [11]): 25.2% | Activity (Rattus norvegicus [12]): Non-toxic | Activity (Rattus norvegicus [13]): 103.08 U/L | Activity (Rattus norvegicus [14]): 8.58% | Activity (Rattus norvegicus [15]): Non-toxic | Activity (Rattus norvegicus [16]): 43.43% | Activity (Rattus norvegicus [17]): Active | Activity (Rattus norvegicus [18]): Non-toxic | Activity (Rattus norvegicus [19]): Non-toxic | Activity (Rattus norvegicus [20]): 41.98% | Activity (Rattus norvegicus [21]): 1.26 micrometer/day | Activity (Rattus norvegicus [22]): Active | Activity (Rattus norvegicus [23]): 0.29 mmol/L | Activity (Rattus norvegicus [24]): Non-toxic | Activity (Rattus norvegicus [25]): Non-toxic | Activity (Rattus norvegicus [26]): Non-toxic | Activity (Rattus norvegicus [27]): Non-toxic | Activity [1]: 85.9% | Activity (Rattus norvegicus [28]): Active | LD50 at 336 h [29]: > 500 mg/kg | Activity (Rattus norvegicus [30]): 2.83 ×10⁹ /L | Activity (Rattus norvegicus [31]): Active

CCN(CC)c1ccc2cc(C(=O)C[S+](C)[O-])oc2c1 (configuration not stated)
Activity [1]: 10%

CCOC(=O)c1cc2cc3c(cc2s1)OCO3
Activity (Rattus norvegicus [2]): 5.72% | Activity (Rattus norvegicus [3]): 28.27 U/L | Activity (Rattus norvegicus [4]): Non-toxic | Activity (Rattus norvegicus [5]): Non-toxic | Activity (Mus musculus [6]): Non-toxic | Activity (Rattus norvegicus [7]): Non-toxic | Activity (Rattus norvegicus [8]): Non-toxic | Activity (Mus musculus [9]): Non-toxic | Activity (Rattus norvegicus [10]): Non-toxic | Activity (Rattus norvegicus [11]): 22.07% | Activity (Rattus norvegicus [12]): Non-toxic | Activity (Rattus norvegicus [13]): 114.82 U/L | Activity (Rattus norvegicus [14]): 9.43% | Activity (Rattus norvegicus [15]): Non-toxic | Activity (Rattus norvegicus [16]): 46.29% | Activity (Rattus norvegicus [18]): Non-toxic | Activity (Rattus norvegicus [19]): Non-toxic | Activity (Rattus norvegicus [20]): 41.49% | Activity (Rattus norvegicus [21]): 0.95 micrometer/day | Activity (Rattus norvegicus [23]): 0.34 mmol/L | Activity (Rattus norvegicus [24]): Non-toxic | Activity (Rattus norvegicus [25]): Non-toxic | Activity (Rattus norvegicus [26]): Non-toxic | Activity (Rattus norvegicus [27]): Non-toxic | Activity (Rattus norvegicus [32]): Active | LD50 at 336 h [29]: > 500 mg/kg | Activity (Rattus norvegicus [30]): 3.27 ×10⁹ /L
